Literature values in US7973084B2, “Molecular transporters based on alditol or inositol and processes for the preparation thereof” (Postech Academy-Industrial Foundation, priority 2005, dated 2011).

Tested on: Jurkat cells

| Substance | uptake by Jurkat cells (determined using FACS) | effectiveness in the transportation across a biological membrane relative to Tat protein (49-57 a.a.) (compared with Tat protein (49-57 a.a.)) |
| --- | --- | --- |
| D-arginine nonamer | much more effective | – |
| L-arginine nonamer | – | 20 times |
